Test results taken from patent US9963674B2, “Age-modified cells and methods for making age-modified cells” (Memorial Sloan-Kettering Cancer Center, priority 2013, dated 2018).

Key:
[1] = test system: iPSC-derived fibroblasts; experiment: Progerin modified-RNA overexpression in iPSC-derived fibroblasts, age-associated markers (immunocytochemistry, MitoSOX); type: cell-based, human; details: modified-RNA 3 days; young and old donor iPSC-derived fibroblasts; vs nuclear-GFP
Procedure: The following is a protocol for progerin overexpression using modified-RNA in differentiating or differentiated iPSC-derived cells: • 1. Prepare progerin-modified-RNA (methods of synthesis are described in Example 9) and deliver to iPSC-derived somatic cells using Lipofectamine RNAiMAX (Life Technologies) and incubate • a. For iPSC-derived fibroblasts repeat transfection for 3 consecutive days. • i. Note: Amount/duration combination optimizes treatment for minimal toxicity and earliest significant effects. • b. For iPSC-derived dopamine neurons repeat transfection for 5 consecutive days. • i. Note: Amount/duration combination optimizes treatment for minimal toxicity and earliest significant effects. • c. For other iPSC-derived somatic cells perform pilot experiments to determine amount and duration of progerin modified-RNA. • d. Analyze maturation and/or age-associated phenotypes. • Alternatively, expression of progerin can also be achieved through the use of temperature-sensitive Sendai virus expressing progerin. Additionally, expression of progerin can be achieved by using lentivirus.
For overexpression experiments, modified-RNA was thawed on ice and adjusted to a working concentration of 100 ng/μl. Per 100,000-cell transfection, 200 ng of modified-RNA was diluted up to 10 μl in Opti-MEM medium (Life Technologies), vortexed, and incubated at room temperature for 10 minutes. In a separate tube, 0.6 μl Lipofectamine RNAiMAX® (Life Technologies) was diluted up to 10 μl in Opti-MEM and incubated for the same timeframe. The Lipofectamine mixture was then transferred to the tube containing the modified-RNA mixture, vortexed and incubated for an additional 10 minutes. The transfection mixture was added dropwise to cells that had been pre-treated with 200 ng/ml of the interferon inhibitor B18R (eBioscience, San Diego, Calif.) for at least 4 hours prior to transfection.
After 4 hours at 37° C., the entire suspension was replaced with fresh medium supplemented with B18R. Transfection of iPSC-derived fibroblasts was performed starting on day 50 of differentiation and repeated on 2 consecutive days thereafter. iPSC-derived mDA neurons were transfected starting on day 65 or day 120 of differentiation and repeated on 4 consecutive days thereafter. The additional 2 days of transfections were done in order to establish a phenotype in iPSC-derived mDA neurons. Cells were analyzed one day after the final transfection.
Cells were fixed in 4% paraformaldehyde for 15 minutes. Blocking was performed in phosphate-buffered saline supplemented with 1% BSA, and 0.3% Triton X-100 for 30 minutes to 1 hour. Cells were stained overnight at 4° C. with primary antibodies diluted in blocking buffer. Following several washes, cells were stained with appropriate Alexa Fluor-labeled secondary antibodies (Molecular Probes, Carlsbad, Calif.) at 1:500 in blocking buffer for 30 minutes to 3 hours at room temperature. Cells were counterstained with 4′,6-diamidino-2-phenylindole (DAPI; Thermo Fisher, Rockford, Ill.) to visualize nuclei. Images were acquired with an Olympus IX81 microscope using a Hamamatsu ORCA CCD camera.
Images were acquired on an Operetta (PerkinElmer, Waltham, Mass.) using a 20× objective. Image processing was performed using Harmony high content analysis software (version 3.0).
Passage-matched cells were scored from three independent experiments. […] In these cases, 50 cells per condition were assessed for each independent experiment. […]

[2] = test system: iPSC-derived fibroblasts; experiment: Telomere length measurement by HT-QFISH in transfected iPSC-derived fibroblasts; type: cell-based, human; details: Q-FISH
Procedure: Cells were plated on a clear-bottom, black-walled, 96-well plate, including 4 well replicates per sample, and high throughput quantitative fluorescence in situ hydridization (HT-QFISH) was performed as previously described (Canela et al., Proc Natl Acad Sci USA 104:5300-5305 (2007)). Images were captured with the Operetta using a 20× objective. Image processing was performed using Harmony high content analysis software. Telomere length values were measured using individual telomere spots corresponding to the specific binding of a Cy3-labeled telomeric probe (>600 spots per sample) in quadruplicate samples, fluorescence intensities were converted into kilobases using control cell lines of known telomere length as described previously (Canela et al., Proc Natl Acad Sci USA 104:5300-5305 (2007) and McIlrath et al., Cancer research 61: 912-915 (2001)).

[3] = test system: iPSC-derived mDA neuron grafts in NOD-SCID IL2Rgc-null mice; experiment: Ultrastructural analysis of grafts by transmission electron microscopy; type: in vivo; details: six months, PD-derived grafts overexpressing progerin
Procedure: Procedures were performed according to (Milner et al., Methods Mol Biol 793:23-59 (2011)). Briefly, six months following transplantation of human iPSC-derived mDA neurons, mice were overdosed with 150 mg/kg sodium pentobarbital intraperitoneally. The brains were fixed by aortic arch perfusion sequentially with normal saline (0.9%) containing 1000 units/ml of Heparin, 50 ml of 3.75% acrolein and 2% paraformaldehyde in 0.1 M phosphate buffer (PB, pH 7.4), and 200 ml of 2% PFA in PB. The brains were removed and post-fixed with 1.87% acrolein/2% PFA in PB for 30 minutes at room temperature. Coronal tissue blocks were sectioned (40 μm) on a vibrating microtome (Leica Microsystems, Deerfield, Ill.). Selected sections containing the xenograft were pretreated in 1% sodium borohydride. Non-specific binding was blocked with 0.5% BSA 0.1 M Tris-saline (TS, pH 7.6). Primary antibodies (see Table S4) were diluted in 0.1% BSA in TS and incubated overnight at 4° C. Sections were incubated with a biotinylated secondary antibody (Jackson ImmunoResearch, West Grove, Pa.) for 30 minutes at room temperature. […] The number of TH-immunogold particles per μm^2 in 25 dendrites per group and the area (μm^2) quantification of 25 mitochondria per group were performed using ImageJ.

## GFP-progerin: progerin (truncated lamin A) fused to GFP, SEQ ID No. 2, overexpressed via modified-RNA or hSyn lentivirus
[1]
  DNA damage (γH2AX): formation of DNA double strand breaks
  LAP2α expression: loss of LAP2α expression
  heterochromatin markers (H3K9me3 and HP1γ): loss of heterochromatin markers
  mitochondrial superoxide (MitoSOX): increased mitochondrial dysfunction
  nuclear morphology: induced nuclear morphology abnormalities
[2]; telomeres less than 2 kb
  percentage of short telomeres: increase in the percentage of short telomeres
[2]; transfected iPSC-derived fibroblasts
  telomere length: decrease in overall length
[3]
  fibrillar bodies (neurite degeneration): prominent
